Experimental data as given in patent publication US12559750B2, “Methods and compositions for treatment of polycystic kidney disease” (Regulus Therapeutics Inc., priority 2021, dated 2026).
e = 2'-O-(2-methoxyethyl) (MOE); k = constrained ethyl (cEt); d = 2'-deoxy (DNA); m = 2'-O-methyl; f = 2'-fluoro

Target: AMPA-R
Test: [3H]AMPA radioligand binding assay on rat brain synaptic membranes;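 further: competition binding in which test compounds at rising concentrations displace [3H]AMPA from AMPA-R on rat brain synaptic membranes, with reduced bound radioligand as read-out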
Conditions: for % Inhibition @ Concentration 100 uM: Table 8 (3′-terminal nucleobase/sugar variants); for % Inhibition @ Concentration 0.1 uM: Table 8, 0.1 uM; for % Inhibition @ Concentration 1 uM: Table 8, 1 uM; for % Inhibition @ Concentration 10 uM: Table 8, 10 uM
Experimental: The activity of anti-miR-17 compounds was evaluated in a radioligand binding assay which measured the binding of the [^3H] AMPA ligand to the AMPA-R present on rat brain synaptic membranes, in the presence of increasing concentrations of anti-miR-17 compound, anti-miR-17 compounds with affinity for the AMPA-R will bind to and compete with the binding of the [^3H] AMPA ligand.
5.0 nM of the ligand [^3H] AMPA, 1.0 mM of the non-specific ligand L-Glutamic acid, and anti-miR compound at uM concentrations were incubated with synaptic membranes prepared from Wistar rat cerebral cortex for 90 minutes.
The compounds were tested in the radioligand binding assay described herein, to determine the ability of the anti-miR-17 compounds to and compete with the binding of the [3H] AMPA ligand.

Row | IC50 (Table 8) [µM] | % Inhibition @ Concentration 100 uM [%] | % Inhibition @ Concentration 0.1 uM [%] | % Inhibition @ Concentration 1 uM [%] | % Inhibition @ Concentration 10 uM [%] | IC50 (Experiment #2) [µM] | % Inhibition @ 0.1 uM (Experiment #2, 0.1 uM) [%] | % Inhibition @ 1 uM (Experiment #2, 1 uM) [%] | % Inhibition @ 10 uM (Experiment #2, 10 uM) [%] | % Inhibition @ 100 uM (Experiment #2, 100 uM) [%] | Sequence | further results
1 | ≥ 100 | 10.7 | 11.1 | 9.2 | 2.4 |  |  |  |  |  | ASGSCMAFCFUFUMUSDM [RG-NG-1037] | 
2 | 0.76 | 98.5 | 27.2 | 46.3 | 91.3 |  |  |  |  |  | ASGSCMAFCFUFUMUSIM [RG-NG-1035] | 
3 | 0.13 | 97.3 | 44.9 | 80.9 | 96.5 |  |  |  |  |  | ASGSCMAFCFUFUMUSGD [RG-NG-1033] | 
4 |  |  |  |  |  | 2.56 | 9.9 | 38.5 | 69 | 88.3 | ASGLCMAFCFUFUMTLGS [RG-NG-1012] | 
5 | 18.6 | 78.1 | 19.2 | 11.3 | 36.2 |  |  |  |  |  | ASGSCMAFCFUFUMUSNM [RG-NG-1036] | 
6 |  |  |  |  |  | > 100 | 0.9 | 15.9 | 7 | 38.4 | AMGLCLALCLUMTLUCM [RG-NG-1029] | 
7 |  |  |  |  |  | > 100 | −3.8 | −5.6 | 3.7 | 37.2 | ASASGSCMAFCFUFUMUS [RG-NG-1013] | 
8 |  |  |  |  |  | > 100 | −2.2 | 2.3 | −2.2 | 3 | ASGSCSAFCFUFUMUSCS [RG-NG-1027] | 
9 |  |  |  |  |  | 56.6 | −22.4 | 13.6 | 22.1 | 59.6 | ASGECMAFCFUFUMTEGS [RG-NG-1008] | 
10 |  |  |  |  |  | > 100 | −4.3 | 1 | 2.7 | 16.7 | AMAMGLCLALCLUMTLUM [RG-NG-1031] | 

Second part, the sequence before the results:

Row | Sequence | IC50 (Table 8) [µM] | % Inhibition @ Concentration 100 uM [%] | % Inhibition @ Concentration 0.1 uM [%] | % Inhibition @ Concentration 1 uM [%] | % Inhibition @ Concentration 10 uM [%] | IC50 (Experiment #2) [µM] | % Inhibition @ 0.1 uM (Experiment #2, 0.1 uM) [%] | % Inhibition @ 1 uM (Experiment #2, 1 uM) [%] | % Inhibition @ 10 uM (Experiment #2, 10 uM) [%] | % Inhibition @ 100 uM (Experiment #2, 100 uM) [%] | further results
11 | AFGSCMAFCFUFUMUSGE [RG-NG-1023] |  |  |  |  |  |  |  |  |  |  | IC50 (Experiment #3): 3.12 µM; % Inhibition @ 0.1 uM (Experiment #3, 0.1 uM): 3.1%; % Inhibition @ 1 uM (Experiment #3, 1 uM): 25.6%; % Inhibition @ 10 uM (Experiment #3, 10 uM): 75.2%; % Inhibition @ 100 uM (Experiment #3, 100 uM): 95.3%
12 | ASGSCMAFCFUFUMUSGE [RG-NG-1025] |  |  |  |  |  |  |  |  |  |  | IC50 (Experiment #3): 1.85 µM; % Inhibition @ 0.1 uM (Experiment #3, 0.1 uM): −3.8%; % Inhibition @ 1 uM (Experiment #3, 1 uM): 36.5%; % Inhibition @ 10 uM (Experiment #3, 10 uM): 84.1%; % Inhibition @ 100 uM (Experiment #3, 100 uM): 96.4%
13 | CETEGSCEAECETEGSTEADASGSCMAFCFUFUMUSGS (CTGCACTGTAAGCACUUUG; sugars from the 5' end eekeeeekedkkmfffmkk, backbone and methylation of C not given here) [RG-NG-1040] | 28.6 | 64.1 | 10.4 | 14.4 | 38.9 |  |  |  |  |  | 
14 | ASGSCMAFCFUFUMUSAM [RG-NG-1038] | 8.23 | 81.3 | 17.9 | 25.4 | 47.4 |  |  |  |  |  | 
15 | ALGLCMAFCFUFUMUSGS [RG-NG-1011] |  |  |  |  |  | 2.56 | −2.2 | 30.6 | 78.5 | 94 | 
16 | ASGSCMAFCFUFUMUSGM [RG-NG-1034] | 1.2 | 99.7 | 14.3 | 44.8 | 85.2 |  |  |  |  |  | 
17 | AECETEGSTEAASGSCMAFCFUFUMUSCS (ACTGTAAGCACUUUC; S-cEt, 2'-MOE, 2'-F, 2'-OMe modifications; modified_base 3 OTHER; thymine; modified_base 5 OTHER; misc_feature 1..15 Synthetic: RG-NG-1018; modified_base 1..3 OTHER; 2'-O-methoxyethyl nucleoside; modified_base 4 OTHER; S-constrained ethyl nucleoside; modified_base 7..8 OTHER; modified_base 9 OTHER; 2'-O-methyl nucleoside; modified_base 10..12 OTHE) |  |  |  |  |  |  |  |  |  |  | IC50 (Experiment #3): > 100 µM; % Inhibition @ 0.1 uM (Experiment #3, 0.1 uM): 3%; % Inhibition @ 1 uM (Experiment #3, 1 uM): 8.1%; % Inhibition @ 10 uM (Experiment #3, 10 uM): 1%; % Inhibition @ 100 uM (Experiment #3, 100 uM): 12.3%
